The values that follow come from patent US8703756B2, “Synthetic procedure and cancer treatment with cisplatin derivatives” (The Board of Regents of the Nevada System of Higher …, priority 2012, dated 2014).

For assay [1], the system named is A549 human lung cancer cells. In words: MTS cell proliferation assay, A549 lung cancer cells. In kind it is cell-based. To be noted: for effects in this experimental setting: human cancer cell line setting of b48. As for the experimental part: A series of cisplatin analogs of the formula (4,4′-bis[RO]-2,2′-bipyridine)PtCl2 [where, R=—(CH2)nCH3, —(CH2)nOCH3, —(CH2)n[O(CH2)m]yO(CH2)zCH3 (n=1-10; m, y, z=0-10)] were synthesized and characterized using ^1H NMR, ^13C NMR spectroscopy, and elemental analysis. The antitumor activities of these compounds were examined in a lung cancer cell line (A549) using the MTS cell proliferation assay and the results were compared to that of cisplatin and cisplatin derivatives.
(§1) Cells were cultured at a density of 2.1×10^3 cells per well in flat bottomed 96-well plates in 100 μl of medium supplemented with 10% fetal bovine serum (FBS), 25 mM HEPES buffer (pH 7.4), Penicillin (100 U/ml) and Streptomycin (100 μg/ml) and incubated at 37° C. in a humidified, 5% CO2 atmosphere for 2 days. The cells were then treated with DMSO or the appropriate drugs for 1 hour, washed thrice with 100 μl phosphate buffered saline (PBS), and incubated in 100 μl of fresh medium. After 2 days, the medium was replace with 120 μl of medium containing 50 μM phenazine ethosulfate (PES) and 317 μg/mL CellTiter 96® Aqueous One Solution Reagent (MTS) (Promega, Madison, Wis.). After 4 hours in culture the cell viability was determined by measuring the absorbance at 490 nm using a Tecan Infinite M1000 plate reader.
Cells were treated with CDDP or the platinum analogs at various concentrations for 1 hour and the viability was determined 48 h post-treatment using the MTS assay.
Cells were treated with CDDP or the platinum analogs at various concentrations for 48 hour and the viability was determined post-treatment using the MTS assay.
In general terms: Tetrazolium dyes change colour on reduction, which living cells bring about.

The conditions of assay [2]: tested on mice; cited from earlier work.
The subject of assay [3] is DU-145 human prostate cancer cells. In words: MTS assay, DU-145 prostate cancer cells. In kind it is cell-based. Particulars: DU-145, up to a 1 mM concentration. Here is the method:
as §1
(§2) Cells were treated with CDDP or the platinum analog at various concentrations for 1 hour and the viability was determined 48 h post-treatment using the MTS assay.
(§3) This is a table comparison of EC50 (μM) determined from MTS assay data of the various cell lines treated with CDDP or the analog where R=(CH2)3CH3.

The subject of assay [4] is MCF7 human breast cancer cells. In words: MTS assay, MCF7 breast cancer cells. In kind it is cell-based. To be noted: MCF7, up to a 1 mM concentration. Here is the method: as §1, §2, §3
Assay [5] concerns T-47D human breast cancer cells. In words: MTS assay, T-47D breast cancer cells. The assay is classed as cell-based. To be noted: up to a 1 mM concentration. Here is the method:
as §1, §2, §3

The test system of assay [6] is HCC38 human breast cancer cells. In words: MTS assay, HCC38 breast cancer cells. The assay is classed as cell-based. To be noted: HCC38, up to a 1 mM concentration. Here is the method:
as §1, §2, §3

The subject of assay [7] is MDA-MB-435 human melanoma cancer cells. In words: MTS assay, MDA-MB-435 melanoma cancer cells. In kind it is cell-based. Particulars: MDA-MB-435, up to a 1 mM concentration. Here is the method: as §1, §2, §3

Regarding `N.N.O=C([O-])C1(C(=O)[O-])CCC1.[Pt+2]` [carboplatin], the “effects in this experimental setting” value in assay [1] is listed as “lack of effects”.
`O=C(O)C(=O)O.[NH-][C@@H]1CCCC[C@H]1[NH-].[Pt+2]` [oxaliplatin]: in assay [1], the “effects in this experimental setting” value is “lack of effects”.
For the compound Pd(II)(cis-2,2′-bipyridine)(NO3)2, the “percent increased life span (% ILS)” value in assay [2] was 55-70%.
With `N.N.[Cl][Pt][Cl]` [cisplatin, cis-diamminedichloroplatinum], the “effectiveness, 48 h treatment” value in assay [1] (A549, concentrations higher than 500 μM) was “not very effective”. For the same compound, in assay [1], the “effects in this experimental setting” value is recorded as “lack of effects”. The “effect on the A549 cells” value in assay [1] (one hour treatment, up to a 1 mM concentration) is on record as “no effect”. Besides, the “effect on the cell line” value in assay [3], in assay [4], in assay [5], in assay [6] and in assay [7] was “little or no effect” each time. In assay [2], the “percent increased life span (% ILS)” value is recorded as 65-80%.
